# Laboratory results: patent publication US20090208747A1, “Novel Crystalline Methods and Novel Crystalline and Amorphous forms of Halogenated Sugars” (V.B. MEDICARE PVT. LTD, priority 2006, published 2009)
# What was measured:
# [1] = Accelerated stability test, sealed containers incubated at 50° C.; type: physicochemical; conditions: sealed container
# Protocol: For extrapolating potential storage stability beyond one year, an accelerated storage stability test was conducted. In this test, crystalline TGS of small and large mean particle size was incubated at 50° C. in sealed containers. Percent assay and pH were tested after each 24 hours for five successive days. […] A three days' stability in accelerated stability test is extrapolated by Catani et al (2005) to 8 years of storage stability at ambient temperature.
# All the three samples were taken in sealed containers and were incubated at 50° C. […]
# Particle size analysis = conditions: for particle size distribution at 90%: 90% of particles below this size
# Protocol: The TGS crystals obtained were tested for purity and particle size.
# The solids obtained were tested for purity, particle size and X ray diffraction for the nature of solid obtained.
Compound,Assay (%) ([1]; Fifth day),PH ([1]; Fifth day),Assay (%) ([1]; First day),PH ([1]; First day),Assay (%) ([1]; Fourth day),PH ([1]; Fourth day),Assay (%) ([1]; Second day),PH ([1]; Second day),Assay (%) ([1]; Sixth day),PH ([1]; Sixth day),Assay (%) ([1]; Third day),PH ([1]; Third day),decline in percent assay ([1]; by fifth day),decline in percent assay ([1]; by sixth day),"decline in percent assay ([1]; in first three days, listed as large particle size crystalline TGS)",difference in pH ([1]; over the test period),particle size distribution at 90% (Particle size analysis; listed as Example 5),mean particle size (Particle size analysis; listed as Crystalline TGS (big particle size)),particle size distribution at 90% (Particle size analysis)
OC[C@H]1O[C@H](O[C@]2(CCl)O[C@H](CCl)[C@@H](O)[C@@H]2O)[C@H](O)[C@@H](O)[C@H]1Cl [1′-6′-Dichloro-1′-6′-DIDEOXY-β-Fructofuranasyl-4-chloro-4-deoxy-galactopyranoside],96.86%,7.00,98.73%,7.08,97.06%,7.00,98.21%,7.08,96.72%,7.02,97.53%,7.02,1.87%,2.01%,1.2%,not substantial,below 240 microns,about 35 micron,
"OC[C@H]1O[C@H](O[C@]2(CCl)O[C@H](CCl)[C@@H](O)[C@@H]2O)[C@H](O)[C@@H](O)[C@H]1Cl [Example 6, 1′-6′-Dichloro-1′-6′-DIDEOXY-β-Fructofuranasyl-4-chloro-4-deoxy-galactopyranoside]",,,,,,,,,,,,,,,,,,,below 12 microns
"OC[C@H]1O[C@H](O[C@]2(CCl)O[C@H](CCl)[C@@H](O)[C@@H]2O)[C@H](O)[C@@H](O)[C@H]1Cl [Example 4, 1′-6′-Dichloro-1′-6′-DIDEOXY-β-Fructofuranasyl-4-chloro-4-deoxy-galactopyranoside]",,,,,,,,,,,,,,,,,,,< 95 microns
